Assay [1] concerns the target T1, soluble guanylate cyclase (sGC) (Homo sapiens, UniProt Q02108+Q02153).
T1 construct: endogenously expressing soluble guanylate cyclase (sGC); endogenous in cells; host or cells: HEK293
T1 sequence (Q02153 1-619): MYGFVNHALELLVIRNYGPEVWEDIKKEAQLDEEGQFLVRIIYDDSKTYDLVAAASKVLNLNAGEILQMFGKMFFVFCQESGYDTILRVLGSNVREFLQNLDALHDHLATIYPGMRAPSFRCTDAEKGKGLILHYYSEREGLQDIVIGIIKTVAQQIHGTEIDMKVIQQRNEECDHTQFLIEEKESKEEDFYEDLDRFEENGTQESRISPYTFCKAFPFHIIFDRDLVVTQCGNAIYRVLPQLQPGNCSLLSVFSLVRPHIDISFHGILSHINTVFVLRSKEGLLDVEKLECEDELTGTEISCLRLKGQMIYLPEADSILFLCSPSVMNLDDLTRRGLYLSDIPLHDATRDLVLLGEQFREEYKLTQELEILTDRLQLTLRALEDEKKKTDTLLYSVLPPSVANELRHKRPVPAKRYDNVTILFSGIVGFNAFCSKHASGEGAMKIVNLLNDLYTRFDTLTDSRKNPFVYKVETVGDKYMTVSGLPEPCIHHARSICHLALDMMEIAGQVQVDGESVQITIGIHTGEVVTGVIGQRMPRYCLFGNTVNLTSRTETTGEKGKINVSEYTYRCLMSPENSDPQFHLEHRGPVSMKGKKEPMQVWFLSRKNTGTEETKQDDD
T1 sequence (Q02108 1-690): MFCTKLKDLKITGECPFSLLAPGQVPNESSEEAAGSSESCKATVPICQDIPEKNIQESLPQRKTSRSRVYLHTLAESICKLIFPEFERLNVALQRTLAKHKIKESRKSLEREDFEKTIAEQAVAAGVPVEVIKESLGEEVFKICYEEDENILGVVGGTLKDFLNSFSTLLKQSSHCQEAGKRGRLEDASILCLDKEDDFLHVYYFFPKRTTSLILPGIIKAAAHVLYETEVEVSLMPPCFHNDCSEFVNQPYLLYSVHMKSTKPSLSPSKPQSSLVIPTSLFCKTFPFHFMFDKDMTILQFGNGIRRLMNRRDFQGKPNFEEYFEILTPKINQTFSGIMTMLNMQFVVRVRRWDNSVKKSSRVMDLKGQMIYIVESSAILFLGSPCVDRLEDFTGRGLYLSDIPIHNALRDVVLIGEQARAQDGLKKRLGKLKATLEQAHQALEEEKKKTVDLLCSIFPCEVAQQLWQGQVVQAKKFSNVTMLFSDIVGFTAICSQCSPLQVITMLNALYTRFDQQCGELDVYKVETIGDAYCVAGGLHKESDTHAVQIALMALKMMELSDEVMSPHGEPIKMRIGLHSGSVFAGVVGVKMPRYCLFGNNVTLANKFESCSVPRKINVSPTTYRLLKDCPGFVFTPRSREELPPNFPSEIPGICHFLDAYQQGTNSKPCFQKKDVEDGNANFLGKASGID
Put plainly: sGC-HEK-cGMP assay with SNP incubation (LC/MS read-out). Type of assay: cell-based. The following applies: 10 μM SNP, 100% = BAY 41-2272 at 10 μM with 100 μM SNP. The protocol:
(Assay Run with SNP Incubation)
Human embryonic kidney cells (HEK293), endogenously expressing soluble guanylate cyclase (sGC), were used to evaluate the activity of test compounds. Compounds stimulating the sGC receptor should cause an increase in the intracellular concentration of cGMP. HEK 293 cells were seeded in Dulbecco's Modification of Eagle's Medium supplemented with fetal bovine serum (10% final) and L-glutamine (2 mM final) in a 200 μL volume at a density of 1×10^5 cells/well in a poly-D-lysine coated 96 well flat bottom plate and grown overnight at 37° C. Medium was aspirated and cells were washed with 1× Hank's Buffered Saline Salt Solution (200 μL). Cells were then incubated for 15 minutes at 37° C. with 200 μL of a 0.5 mM 3-isobutyl-1-methylxanthine (IBMX) solution. Test article and sodium nitroprusside solutions (x μM concentration for test article solution and 10 μM concentration for SNP solution; wherein x is one of the following concentrations);
were then added to the assay mixture (2 μL each) and the resulting mixture incubated at 37° C. for 10 minutes. After the 10 minute incubation, the assay mixture was aspirated and 0.1M HCl (200 μL) was added to the cells. The plate was incubated at 4° C. for 30 minutes in the 0.1M HCl to stop the reaction and lyse the cells. The plates were then centrifuged at 1,200 g for 5 minutes at room temperature. Supernatants were collected and transferred to a new flat bottom 96 well plate for analysis by HPLC-MS. Vehicle controls were carried out using DMSO (1%) solutions. A known sGC stimulator, BAY 41-2272, was used as the positive control. Samples were diluted with an equal volume of 1 M Ammonium Acetate (pH 7) to neutralize samples for better chromatography. A 2×cGMP standard solution was prepared in 0.1 M HCl and then diluted with an equal volume of 1 M Ammonium Acetate, with the following final concentrations in nM: 1024, 512, 256, 128, 64, 32, 16, 8, 4, 2, 1. cGMP concentrations in the test plates were determined from each sample using the LC/MS conditions shown in Table 2 below and the calculated cGMP standard curve. EC50 values were calculated from concentration-response curves generated with GraphPad Prism Software.
The biological activities of some of the compounds of Formula I or Formula Ib determined with the sGC-HEK assay with SNP incubation are summarized in Tables 3A and 3B.

The target of assay [2] is T2, Human soluble guanylate cyclase enzyme (hsGC) (Homo sapiens, UniProt Q02108+Q02153).
T2 construct: purchased Enzo Inc. ALX-201-177
T2 sequence (Q02153 1-619): T1 sequence (Q02153 1-619)
T2 sequence (Q02108 1-690): T1 sequence (Q02108 1-690)
Put plainly: Purified human sGC enzyme synergy assay in the presence of sodium nitroprusside (SNP). Type of assay: biochemical. Particulars: 30 μM compound, 1 μM SNP; fold change of specific activity vs DMSO control. The method, then: (§1) Human soluble guanylate cyclase enzyme (hsGC) obtained from Enzo Inc. (P/N: ALX-201-177) was used to evaluate the activity of test compounds. The assay reactions contained 0.1 M Tris (pH 8.0), 0.5 mg/mL BSA (pH 8.0), 2 mM DTT, 2 mM MgCl2, 300 μM GTP, 1 mM 3-isobutyl-1-methylxanthine (IBMX) and 5 ng human soluble guanylate cyclase enzyme. Test compounds in DMSO were then added (2 μL, 10 or 30 μM final concentration) and incubated (water, 200 μL, 96-well plate format) at 37° C. for 30 minutes. The controls were carried out using 2 μL DMSO. After the 30 minute incubation, the reaction was stopped with the addition of 200 μL of cold methanol. The plate was then centrifuged at 3,200 rpm for 10 minutes at room temperature. Supernatants (200 μL) were collected and transferred to a new 96 well plate for analysis by HPLC LC/MS/MS.
(§2) An 8 point cGMP (Sigma-Aldrich P/N: G6129) standard curve was prepared in assay buffer ranging from 0.156-20 μM. Samples for the cGMP standard curve were then diluted with an equal volume of methanol resulting in final cGMP concentrations of 0.078-10 μM.
(§3) The cGMP standard curve was generated using GraphPad Prism Software.
Calculations: Specific Activity was determined by the amount of cGMP formed (nmoles) per mg of sGC per min. Enzyme “fold-change” was calculated by dividing Specific Activity for test compounds by Specific Activity of DMSO controls. […]

In assay [3] the target is T2, Human soluble guanylate cyclase enzyme (hsGC). Put plainly: Purified human sGC enzyme activity assay (without SNP). Type of assay: biochemical. Particulars: 30 μM compound, fold change of specific activity vs DMSO control. The protocol: as §1, §2, §3
Calculations: Specific Activity was determined by the amount of cGMP formed (nmoles) per mg of sGC per min. Enzyme “fold-change” was calculated by dividing Specific Activity for test compounds by Specific Activity of DMSO controls.

The test system of assay [4] is Guinea pig tracheal smooth muscle. Put plainly: Electrical field stimulated guinea pig tracheal smooth muscle contraction (ex vivo). Particulars: sub-maximal EFS; pooled data of three experiments; 95% CI 0.78-0.94; read-out: IC50, inhibition of EFS-induced tracheal smooth muscle contraction. The source says:
It is possible to assess the bronchodilating effects of sGC stimulators by using the system described below. This system allowed us to determine potency, efficacy and duration of action of several sGC stimulators, as well as to assess potential side effects such as blood pressure, or heart rate changes.
Animals: Guinea pig, Dunkin Hartley, male, Full barrier-bred and certified free of specific micro-organisms on receipt 525-609 g on the experimental day, Harlan UK Ltd. Guinea pigs were housed in a group of 4 in solid-bottomed cages with Gold Flake bedding in a controlled environment (airflow, temperature and humidity). Food (FD1, Special Diet Services) and water were provided ad libitum.
On each experimental day, a guinea pig was killed by exposure to a rising concentration of CO2 and the trachea removed. […] Tissues were washed with Kreb's buffer and stimulated using the previously determined sub-maximal voltage for 1 hour to establish a stable baseline contraction prior to assessment of compound activity.
A cumulative dose response curve (DRC) to each test substance was then performed and changes in smooth muscle contraction measured. The effect of each test substance in each experiment was expressed as a percentage inhibition of the baseline contraction, normalized to the relevant vehicle controls. […]

For `Nc1nc(-n2cc(-c3ncco3)c(Cc3ccccc3F)n2)ncc1F` [Compound I-8], the Emax at 10 µM in assay [1] (10 μM compound, read-out: HEK assay (Percent Emax at 10 μM)) lay within 60 to 80%. Further, the Emax at 30 µM in assay [1] (30 μM compound, read-out: HEK assay (Percent Emax at 30 μM)) was in the range of 60 to 80%. Further, in assay [2], the “Enzyme Activity (increase at 30 μM with SNP)” value is listed as “E (E = 20 to 30 fold increase)”. Moreover, in assay [3], the “Enzyme Activity (increase at 30 μM without SNP)” value is listed as “C (C = 5 to <10 fold increase)”.
With `CC(C)[N+]1(C)[C@@H]2CC[C@H]1CC(OC(=O)C(CO)c1ccccc1)C2` (some centres unmarked) [Ipratropium bromide], in assay [4], the IC50 worked out at 0.86 nM.

These data come from patent US9487508B2, “SGC stimulators” (IRONWOOD PHARMACEUTICALS, INC., priority 2012, dated 2016).
